Results as given in US7829524B2, “Antimicrobial peptides” (Novozymes Adenium Biotech A/S, priority 2003, dated 2010).
Where two headings read alike, the source gives them in different places.

Tested on: E. coli TOP10
Format: cell-based
Conditions: end point OD450, 14 hours
Description: A range of synthetic antimicrobial polypeptides were expressed in E. coli TOP10 (Invitrogen) using arabinose as inducer, as disclosed in Example 1 of International patent application WO 00/73433 (with minor modifications). […] Briefly, fresh overnight cultures grown in RM medium containing 0.2% glucose and ampicillin (100 μg/ml) were diluted 300-fold into 150 microliter of RM containing 0.2% glycerol and ampicillin (100 μg/ml) and different concentrations of arabinose (0, 0.01% or 0.1%) in a microtiter plate and incubated at 37 degrees Celsius with vigorous shaking. The growth curve was monitored by measuring OD450 using a Bioscreen C Microbiology reader (Thermo Electron Corporation) at intervals of 30 minutes for 14 hours (see Invitrogen protocol of the pBAD/gill A, B and C vectors catalogue nos. V450-01 for buffer and media composition). The percentage of growth inhibition was calculated as the end point OD measurement of each sample divided by the end point OD measurement obtained from cells containing the control vector and multiplied by 100. The formula is the following: [formula] where “blank OD” corresponds to the OD of an empty well.

With “GLFKRLRKKIGKKLKKFGQKIKPLRKLVP (Synthetic antimicrobial peptide) [SEQ ID NO: 18]” the “Growth inhibition using 0.1% arabinose (%)” value (Table 5) was 94%.

“GLFRRFGKKIGKKIIKKIGQKIKPIHKLVP (GLFRRFGKKIGKKLKKIGQKIKPIHKLVP; Synthetic antimicrobial peptide) [SEQ ID NO: 43]” was tested, and the “Growth inhibition using 0.1% arabinose (%)” value (Table 5) was 76%.

With “GLFRRFGKKIGKKLKKIGQVIKALRILVP (Synthetic antimicrobial peptide) [SEQ ID NO: 39]” the “Growth inhibition using 0.1% arabinose (%)” value (Table 5) was 95%.

“GLFRRFRRKIGKKLKKFGQKIKPLRKLVP (Synthetic antimicrobial peptide) [SEQ ID NO: 20]” was tested, and the “Growth inhibition using 0.1% arabinose (%)” value (Table 5) was 97%.

With “GLFRRFWKKIGRKLKKIGQKIKPLQILVP (Synthetic antimicrobial peptide) [SEQ ID NO: 47]” the “Growth inhibition using 0.1% arabinose (%)” value (Table 5) was 79%.

In the case of “GLFRRIRRKIGKKFKKFGQVIKPLRKLVP (Synthetic antimicrobial peptide) [SEQ ID NO: 52]”, the “Growth inhibition using 0.1% arabinose (%)” value (Table 5) was 95%.

“GLFRRLGKKIGKKIKKFGQVIKHIRILVP (GLFRRLGKKIGKKLKKFGQVIKHIRILVP; Synthetic antimicrobial peptide) [SEQ ID NO: 34]” was tested, and the “Growth inhibition using 0.1% arabinose (%)” value (Table 5) was 92%.

For “GLFRRLGRKIGKKLKKIGQVIKHIRILVP (Synthetic antimicrobial peptide) [SEQ ID NO: 36]”, the “Growth inhibition using 0.1% arabinose (%)” value (Table 5) was 95%.

“GLFRRLKRKIGKKLKKIAR (Synthetic antimicrobial peptide) [SEQ ID NO: 65]” was tested, and the “Growth inhibition using 0.01% arabinose (%)” value (Table 6) was 91% and the “Growth inhibition using 0.1% arabinose (%)” value (Table 6) was 99%.

For “GLFRRLKRKIGRKFKKIAR (Synthetic antimicrobial peptide) [SEQ ID NO: 60]”, the “Growth inhibition using 0.01% arabinose (%)” value (Table 6) was 85% and the “Growth inhibition using 0.1% arabinose (%)” value (Table 6) was 99%.

With “GLFRRLRGKIGKKLKKIGQKIKAIRILVP (Synthetic antimicrobial peptide) [SEQ ID NO: 33]” the “Growth inhibition using 0.1% arabinose (%)” value (Table 5) was 91%.

In the case of “GLFRRLRKKIGKKFKKIAR (Synthetic antimicrobial peptide) [SEQ ID NO: 69]”, the “Growth inhibition using 0.01% arabinose (%)” value (Table 6) was 86% and the “Growth inhibition using 0.1% arabinose (%)” value (Table 6) was 99%.

With “GLFRRLRKKIGKKLKKIAR (Synthetic antimicrobial peptide) [SEQ ID NO: 64]” the “Growth inhibition using 0.01% arabinose (%)” value (Table 6) was 92% and the “Growth inhibition using 0.1% arabinose (%)” value (Table 6) was 99%.

In the case of “GLFRRLRKKIGKKLKKIGQLIKAIRILVP (Synthetic antimicrobial peptide) [SEQ ID NO: 23]”, the “Growth inhibition using 0.1% arabinose (%)” value (Table 5) was 97%.

In the case of “GLFRRLRRKIGKKFKKFGQKIKPLRKLVP (Synthetic antimicrobial peptide) [SEQ ID NO: 46]”, the “Growth inhibition using 0.1% arabinose (%)” value (Table 5) was 96%.

“GLLKRFRGKIGKKLKKYGQLIKAIRILVP (Synthetic antimicrobial peptide) [SEQ ID NO: 22]” was tested, and the “Growth inhibition using 0.1% arabinose (%)” value (Table 5) was 90%.

In the case of “GLLKRLGRKIGKKFKKIAR (Synthetic antimicrobial peptide) [SEQ ID NO: 61]”, the “Growth inhibition using 0.01% arabinose (%)” value (Table 6) was 89% and the “Growth inhibition using 0.1% arabinose (%)” value (Table 6) was 98%.

With “GLLKRLGRKIGKKLKKFGQKIKAIRKLVP (Synthetic antimicrobial peptide) [SEQ ID NO: 8]” the “Growth inhibition using 0.01% arabinose (%)” value (Table 4) was 97% and the “Growth inhibition using 0.1% arabinose (%)” value (Table 4) was 100%.

“GLLKRLRKKIGKKLKKIGPKIKHIRKLVP (Synthetic antimicrobial peptide) [SEQ ID NO: 10]” was tested, and the “Growth inhibition using 0.01% arabinose (%)” value (Table 4) was 93% and the “Growth inhibition using 0.1% arabinose (%)” value (Table 4) was 100%.

With “GLLKRLRKKIGKKLKKIGQKIKPIRKLVP (Synthetic antimicrobial peptide) [SEQ ID NO: 25]” the “Growth inhibition using 0.1% arabinose (%)” value (Table 5) was 94%.

“GLLKRLRKKIGKKLKKIGQMIKHIRILVP (Synthetic antimicrobial peptide) [SEQ ID NO: 44]” was tested, and the “Growth inhibition using 0.1% arabinose (%)” value (Table 5) was 93%.

In the case of “GLLRRFGKKIGKKFKKYGQKIKNLRILVP (Synthetic antimicrobial peptide) [SEQ ID NO: 24]”, the “Growth inhibition using 0.1% arabinose (%)” value (Table 5) was 92%.

“GLLRRFGRKIGKKFKKFGPKIKHLRKLVP (Synthetic antimicrobial peptide) [SEQ ID NO: 26]” was tested, and the “Growth inhibition using 0.1% arabinose (%)” value (Table 5) was 92%.

For “GLLRRFGRKIGKKFKKFGPKIKILRKLVP (GLLRRFGRKIGKKFKKFGPKIKHLRKLVP; Synthetic antimicrobial peptide) [SEQ ID NO: 19]”, the “Growth inhibition using 0.1% arabinose (%)” value (Table 5) was 91%.

With “GLLRRFRBEIGKKLKKYGQKIKHLRKLVP (GLLRRFREKIGKKLKKYGQKIKHLRKLVP; Synthetic antimicrobial peptide) [SEQ ID NO: 45]” the “Growth inhibition using 0.1% arabinose (%)” value (Table 5) was 79%.

In the case of “GLLRRFRKKIGEKFKKFGQKIKNIRILVP (Synthetic antimicrobial peptide) [SEQ ID NO: 55]”, the “Growth inhibition using 0.1% arabinose (%)” value (Table 5) was 79%.

In the case of “GLLRRFRKKIGGKLKKYGQIIKHLRILVP (Synthetic antimicrobial peptide) [SEQ ID NO: 5]”, the “Growth inhibition using 0.01% arabinose (%)” value (Table 4) was 94% and the “Growth inhibition using 0.1% arabinose (%)” value (Table 4) was 100%.

For “GLLRRFRKKIGKKLKKITR (Synthetic antimicrobial peptide) [SEQ ID NO: 67]”, the “Growth inhibition using 0.01% arabinose (%)” value (Table 6) was 90% and the “Growth inhibition using 0.1% arabinose (%)” value (Table 6) was 100%.

For “GLLRRFRKKIGKKLKKYGQKIKHLRILVP (Synthetic antimicrobial peptide) [SEQ ID NO: 57]”, the “Growth inhibition using 0.1% arabinose (%)” value (Table 5) was 95%.

For “GLLRRFRNKIGKKLKKIGQKIKPIRKLVP (Synthetic antimicrobial peptide) [SEQ ID NO: 50]”, the “Growth inhibition using 0.1% arabinose (%)” value (Table 5) was 92%.

For “GLLRRFRRKIGRKLKKYGLMIKPLRKLVP (Synthetic antimicrobial peptide) [SEQ ID NO: 21]”, the “Growth inhibition using 0.1% arabinose (%)” value (Table 5) was 94%.

With “GLLRRFWMKIGGKLKKFGQMIKHLRKLVP (Synthetic antimicrobial peptide) [SEQ ID NO: 11]” the “Growth inhibition using 0.01% arabinose (%)” value (Table 4) was 92% and the “Growth inhibition using 0.1% arabinose (%)” value (Table 4) was 99%.

“GLLRRIIGKKIGKKFKKCGQVIKAIRILVP (GLLRRLGKKIGKKFKKCGQVIKAIRILVP; Synthetic antimicrobial peptide) [SEQ ID NO: 54]” was tested, and the “Growth inhibition using 0.1% arabinose (%)” value (Table 5) was 89%.

“GLLRRLGKKIGKKFKKFGQVIKALRILVP (Synthetic antimicrobial peptide) [SEQ ID NO: 35]” was tested, and the “Growth inhibition using 0.1% arabinose (%)” value (Table 5) was 95%.

With “GLLRRLGRKIGKKLKKIGQKIKAIRILVP (Synthetic antimicrobial peptide) [SEQ ID NO: 49]” the “Growth inhibition using 0.1% arabinose (%)” value (Table 5) was 96%.

With “GLLRRLRGKIGKKLKKIGQKIKAIRKLVP (Synthetic antimicrobial peptide) [SEQ ID NO: 4]” the “Growth inhibition using 0.01% arabinose (%)” value (Table 4) was 89% and the “Growth inhibition using 0.1% arabinose (%)” value (Table 4) was 100%.

“GLLRRLRKKIEKKLKKYGPKIKALRKLVP (Synthetic antimicrobial peptide) [SEQ ID NO: 37]” was tested, and the “Growth inhibition using 0.1% arabinose (%)” value (Table 5) was 94%.

In the case of “GLLRRLRKKIGKKLKFFGQKIKHIRILVP (GLLRRLRKKIGKKLKKFGQKIKHIRILVP; Synthetic antimicrobial peptide) [SEQ ID NO: 7]”, the “Growth inhibition using 0.01% arabinose (%)” value (Table 4) was 93% and the “Growth inhibition using 0.1% arabinose (%)” value (Table 4) was 100%.

For “GLLRRLRKKIGKKLKKIGQKIKPIRKLVP (Synthetic antimicrobial peptide) [SEQ ID NO: 56]”, the “Growth inhibition using 0.1% arabinose (%)” value (Table 5) was 94%.

For “GLLRRLRKKIGKKLKKITR (Synthetic antimicrobial peptide) [SEQ ID NO: 63]”, the “Growth inhibition using 0.01% arabinose (%)” value (Table 6) was 95% and the “Growth inhibition using 0.1% arabinose (%)” value (Table 6) was 99%.

For “GLLRRLRKKIGRKFKKIAR (Synthetic antimicrobial peptide) [SEQ ID NO: 68]”, the “Growth inhibition using 0.01% arabinose (%)” value (Table 6) was 91% and the “Growth inhibition using 0.1% arabinose (%)” value (Table 6) was 100%.

With “GLLRRLRNKIRKKLKKFGQKIKAIRILVP (Synthetic antimicrobial peptide) [SEQ ID NO: 16]” the “Growth inhibition using 0.01% arabinose (%)” value (Table 4) was 96% and the “Growth inhibition using 0.1% arabinose (%)” value (Table 4) was 100%.

“GLLRRLRRKIGGKLKKFGQKIKPLRKLVP (Synthetic antimicrobial peptide) [SEQ ID NO: 6]” was tested, and the “Growth inhibition using 0.01% arabinose (%)” value (Table 4) was 92% and the “Growth inhibition using 0.1% arabinose (%)” value (Table 4) was 100%.

“GLLRRLRRKIGKKFKKIGQVIKHLRKLVP (Synthetic antimicrobial peptide) [SEQ ID NO: 32]” was tested, and the “Growth inhibition using 0.1% arabinose (%)” value (Table 5) was 97%.

“GLLRRLRRKIGKKLKKFGQKIKHIRILVP (Synthetic antimicrobial peptide) [SEQ ID NO: 15]” was tested, and the “Growth inhibition using 0.01% arabinose (%)” value (Table 4) was 96% and the “Growth inhibition using 0.1% arabinose (%)” value (Table 4) was 100%.

For “GLLRRLWKKIGRKFKKYGQVIKHIRKLVP (Synthetic antimicrobial peptide) [SEQ ID NO: 48]”, the “Growth inhibition using 0.1% arabinose (%)” value (Table 5) was 97%.

In the case of “GLVRRFRRKIGKKLKKIGQIIKAIRKLVP (Synthetic antimicrobial peptide) [SEQ ID NO: 31]”, the “Growth inhibition using 0.1% arabinose (%)” value (Table 5) was 96%.

“GRFKRFWKKIGRKFKKIGQMLKPIRILVP (Synthetic antimicrobial peptide) [SEQ ID NO: 9]” was tested, and the “Growth inhibition using 0.01% arabinose (%)” value (Table 4) was 96% and the “Growth inhibition using 0.1% arabinose (%)” value (Table 4) was 100%.

“GRFKRLRKKIGKKFKKIGQKIKDIRKLIVP (GRFKRLRKKIGKKFKKIGQKIKDIRKLVP; Synthetic antimicrobial peptide) [SEQ ID NO: 51]” was tested, and the “Growth inhibition using 0.1% arabinose (%)” value (Table 5) was 97%.

In the case of “GRFRRFRKKIGGKLKKIGQVIKDIRILVP (Synthetic antimicrobial peptide) [SEQ ID NO: 28]”, the “Growth inhibition using 0.1% arabinose (%)” value (Table 5) was 95%.

In the case of “GRFRRFRKKIGKKFKKFGQMIKALRILVP (Synthetic antimicrobial peptide) [SEQ ID NO: 29]”, the “Growth inhibition using 0.1% arabinose (%)” value (Table 5) was 95%.
